Values quoted from earlier work as cited in US20260262632A1, “COMPOSITIONS AND METHODS FOR TANK-MIX SPRAY APPLICATION OF 1-MCP” (AGROFRESH INC., priority 2023, published 2026).

CC1=CC1 [1-MCP, 1-Methylcyclopropene]
concentration above which gaseous 1-MCP is flammable: > 13,300 ppm
